For assay [1], the system named is avidin, positive initiator (+). Put plainly: biotin binding rate, avidin-positive initiator. The text has this:
(§1) Avidin: Avidin (Avi) is a tetrameric protein (homo-4-mer) that is approximately 66 kDa in its tetrameric form and is found in the egg whites of birds, reptiles, and amphibians. Its highly specific activity arises from binding strongly to biotin and this binding event is one of the strongest noncovalent interactions known, making avidin extremely useful for biochemical assays/probes and protein purification chemistries. Each sub-unit of avidin can bind to one biotin molecule. In agreement with CT and Lyz, the number of initiator modifications when using the positive initiator was less than that achieved with neutral initiator (4.3 versus 7.9). The activities of avidin samples were measured next using two different techniques (TABLE 6). Biotin binding rates were determined kinetically and total equilibrium biotin binding were determined spectophotometrically using 4′-hydroxyazobenzene-2-carboxylic acid (HABA) dye. Since the avidin-biotin binding is so strong, the displacement of HABA by biotin in the active site can be measured and the amount of bound biotin can be determined by the decrease in absorbance at 500 nm. The biotin binding rate of Avi-neutral initiator was decreased to 0.48 s^−1 from 105.2 s^−1 for native avidin.

Assay [2] relates to avidin, positive initiator (+)-pCBMA. Put plainly: biotin binding rate, avidin (+)-pCBMA.
Source text: as §1

Assay [3] has as its system avidin, neutral initiator (N)-pCBMA. The assay is described as follows: biotin binding rate, avidin (N)-pCBMA.
Source text: as §1

For assay [4], the system named is avidin, native. The assay is described as follows: biotin binding rate, native avidin.
Source text: as §1

In assay [5] the target is acetylcholinesterase (AChE) from Electrophorus electricus, positive initiator (+) (Electrophorus electricus, UniProt O42275). Put plainly: Michaelis-Menten kinetics, acetylthiocholine iodide hydrolysis, AChE-positive initiator. The following applies: AChE-positive initiator vs AChE-neutral initiator. Format: biochemical, Electrophorus electricus (electric eel). The method, then:
(§2) CT and Lysozyme were used as received. AChE and Uricase were dialyzed in 25 mM sodium phosphate (pH 7.0) using a 25 kDa molecular weight cutoff dialysis tube in a refrigerator for 24 hours and then lyophilized. Copper (II) chloride, sodium ascorbate, 1,1,4,7,10,10-hexamethyltriethylenetetramine (HMTETA), 2-bromo-2-methylpropionyl bromide, 3-(dimethylamino)-1-propylamine, N,N′-diisopropylcarbodimine, fluorescamine, acetylthiocholine iodide, 5,5′-dithiobis(2-nitrobenzoic acid) (DTNB) were purchased from Sigma Aldrich. 4-bromobutyric acid and N-hydroxysuccinimide were purchased from TCI USA (Portland, OR). Micro BCA assay kit was purchased from Thermo Fisher Scientific.
(§3) AChE: 100 μL of NHS-functionalized ATRP initiator solution in DMSO (12.7 μmol, 4.3 mg for neutral and 5.5 mg for positive initiator, respectively) was added to AChE solution (7 mg of AChE in 10 mL of 100 mM phosphate (pH 8.0)) and stirred at room temperature for 2 hours. […] The concentration of AChE initiator conjugates was determined using a Micro BCA Assay Kit.
AChE: Acetylthiocholine iodide (0-100 μL of 10 mM in 100 mM sodium phosphate buffer (pH 7.4)) and 10 μL of DTNB solution (50 mM in DMSO) was mixed with 100 mM sodium phosphate (980-880 μL, pH 7.4). […] Michaelis-Menten parameters were determined by nonlinear curve fitting of initial rate versus substrate concentration plots using Prism 7 software (GraphPad).

The target in assay [6] is acetylcholinesterase (AChE) from Electrophorus electricus, neutral initiator (N)-pSMA (Electrophorus electricus, UniProt O42275). Put plainly: Michaelis-Menten kinetics, acetylthiocholine iodide hydrolysis, AChE (N)-pSMA. Format: biochemical, Electrophorus electricus (electric eel). The following applies: pH 7.4, 37° C., DTNB. The method, then: as §2, §3
CT-pCBMA and pSMA conjugate synthesis: A solution of monomer (230 mg for CBMA and 246 mg for SMA, 1.0 mmol respectively) and CT-initiator (23 mg for neutral and 25 mg for positive initiator, 10 μmol of initiator) in 100 mM sodium phosphate (20 mL, pH 7) was sealed and bubbled with nitrogen gas in an ice bath for 30 minutes. […] Conjugate CT content was determined by BCA assay as described elsewhere (Lee et al. 2005, supra). […]
AChE: Acetylthiocholine iodide (0-100 μL of 10 mM in 100 mM sodium phosphate buffer (pH 7.4)) and 10 μL of DTNB solution (50 mM in DMSO) was mixed with 100 mM sodium phosphate (980-880 μL, pH 7.4). […] The initial rate was monitored by recording the increasing in absorbance as 412 nm using an UV-VIS absorbance spectrometer with a temperature controlled cell folder at 37° C. Michaelis-Menten parameters were determined by nonlinear curve fitting of initial rate versus substrate concentration plots using Prism 7 software (GraphPad).

SMILES strings stand for the structures.

acetylcholinesterase (AChE) from Electrophorus electricus, neutral initiator (N)-pSMA, sequence (O42275 24-633): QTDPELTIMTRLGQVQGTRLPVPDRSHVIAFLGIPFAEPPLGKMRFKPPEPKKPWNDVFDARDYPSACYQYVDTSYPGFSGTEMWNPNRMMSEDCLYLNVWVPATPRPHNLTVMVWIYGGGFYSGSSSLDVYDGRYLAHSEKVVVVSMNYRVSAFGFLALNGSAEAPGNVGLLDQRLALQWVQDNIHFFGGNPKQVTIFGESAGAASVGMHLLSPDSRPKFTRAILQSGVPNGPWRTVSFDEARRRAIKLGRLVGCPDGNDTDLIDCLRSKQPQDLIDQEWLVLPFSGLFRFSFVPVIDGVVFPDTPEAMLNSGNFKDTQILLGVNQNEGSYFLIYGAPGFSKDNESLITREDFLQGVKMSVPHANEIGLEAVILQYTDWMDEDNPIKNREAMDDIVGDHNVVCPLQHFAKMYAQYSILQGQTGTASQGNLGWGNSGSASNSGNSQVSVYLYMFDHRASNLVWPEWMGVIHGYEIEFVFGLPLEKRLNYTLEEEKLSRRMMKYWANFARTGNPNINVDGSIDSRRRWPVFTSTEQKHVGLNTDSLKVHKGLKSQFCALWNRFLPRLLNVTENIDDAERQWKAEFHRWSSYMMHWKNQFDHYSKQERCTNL
acetylcholinesterase (AChE) from Electrophorus electricus, positive initiator (+), sequence (O42275 24-633): as above

For the molecule `O=C(O)CCCC[C@@H]1SC[C@@H]2NC(=O)N[C@@H]21` [biotin], the “increase in biotin binding rate compared to Avi-neutral initiator” value in assay [1] (Avi-positive initiator vs Avi-neutral initiator) was found to be 1.7 fold. Also, the biotin binding rate in assay [1] (avidin (+)) turned out to be 1.69 ± 0.04 s⁻¹; in assay [2], 1.64 ± 0.08 s⁻¹; in assay [3], 0.23 ± 0.07 s⁻¹; in assay [4], 92.5 ± 14.1 s⁻¹.
With `CC(=O)SCC[N+](C)(C)C.[I-]` [acetylthiocholine iodide], the “KM increase versus AChE-neutral initiator” value in assay [5] is recorded as “about 2.4 ×”. In assay [6], the KM entry is listed as “undetectable”, the kcat result is listed as “undetectable” and the kcat/KM result was “undetectable”.

The values above are taken from patent US12053529B2, “Amino-reactive positively charged ATRP initiators that maintain their positive charge during synthesis of biomacro-initiators” (Carnegie Mellon University, priority 2018, dated 2024).
